Test results reported in US12384777B2 (Tay Therapeutics Limited, priority 2019, dated 2025).

Assays:
BRDT(1) = BRDT(1) (Homo sapiens (Human), UniProt Q58F21); assay: Bromodomain binding assay, BRDT(1); details: single point, screened at 30 times Kd; lower numbers indicate stronger hits
Protocol: (§1) T7 phage strains displaying bromodomains were grown in parallel in 24-well blocks in an E. coli host derived from the BL21 strain. E. coli were grown to log-phase and infected with T7 phage from a frozen stock (multiplicity of infection=0.4) and incubated with shaking at 32° C. until lysis (90-150 min). The lysates were centrifuged (5,000×g) and filtered (0.2 μm) to remove cell debris. Streptavidin-coated magnetic beads were treated with biotinylated small molecule or acetylated peptide ligands for 30 min at RT to generate affinity resins for bromodomain assays. The ligated beads were blocked with excess biotin and washed with blocking buffer (SeaBlock (Pierce), 1% BSA, 0.05% Tween 20, 1 mM DTT) to remove unbound ligand and to reduce non-specific phage binding. Binding reactions were assembled by combining bromodomains, ligated affinity beads, and test compounds in 1× binding buffer (16% SeaBlock, 0.32×PBS, 0.02% BSA, 0.04% Tween 20, 0.004% Sodium azide, 7.9 mM DTT). Test compounds were prepared as 1000× stocks in 100% DMSO and subsequently diluted 1:25 in MEG. The compounds were then diluted directly into the assays such that the final concentrations of DMSO and MEG were 0.1% and 2.4%, respectively. All reactions were performed in polypropylene 384-well plates in a final volume of 0.02 ml. The assay plates were incubated at RT with shaking for 1 hr and the affinity beads were washed with wash buffer (1×PBS, 0.05% Tween 20). The beads were then re-suspended in elution buffer (1×PBS, 0.05% Tween 20, 2 μM non-biotinylated affinity ligand) and incubated at RT with shaking for 30 min. The bromodomain concentration in the eluates was measured by quantitative polymerase chain reaction (qPCR).
(§2) An 11-point 3-fold serial dilution of each test compound was prepared in 100% DMSO at 1000× final test concentration. […] Most dissociation constants were determined using a compound top concentration=10,000 nM. If the initial dissociation constant determined was <0.169 nM (the lowest concentration tested), the measurement was repeated with a serial dilution starting at a lower top concentration. […]

BRD3(1) = BRD3(1) (Homo sapiens (Human), UniProt Q15059); assay: Bromodomain binding assay, BRD3(1); details: single point, screened at 30 times Kd; lower numbers indicate stronger hits
Chain of BRD3(1) (Q15059 34-140): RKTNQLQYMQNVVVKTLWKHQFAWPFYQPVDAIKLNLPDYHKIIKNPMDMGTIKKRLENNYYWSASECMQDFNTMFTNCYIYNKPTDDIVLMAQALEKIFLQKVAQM
Protocol: as §1, §2

[1] = Skin penetration (Franz cell); type: in vitro ADME; details: epidermis of pig/human skin after 24 hour exposure
Protocol: A dosing solution was prepared for each test compound at a saturated concentration in an appropriate formulation mixture. The positive control, caffeine (final concentration 10 mg/mL), was prepared in 50:50 transcutol/water. Warm, degassed phosphate buffered saline (PBS) was applied to the receiving chambers of each jacketed Franz cell (1 cm containing a magnetic stirring bar). Pig/Human skin was removed from −80° C. storage and cut to size (˜2 cm^2) using a scalpel. The skin was then allowed to thaw at RT before being placed into warmed PBS for 10 min. Each skin piece was then dried before being placed onto the orifice of the Franz cell, removing any bubbles that occurred. […]
A calibration line was prepared in PBS (5000 ng/mL-0.2 ng/mL). […] All samples were quantified using UPLC-MS/MS (Waters Xevo TQ-S).
The concentration of compound present at each time point was corrected for the addition of fresh buffer. By plotting the concentration of compound vs time, the J flux and T lag could be calculated (values for caffeine should be approximately J Flux: 0.9-1.1 μg/cm/hr, Tlag: 244-257 min, ˜20% of dose present in receiving chamber after 24 hrs, mass balance 70-90%).
Skin extraction samples were corrected for dilution factor and volume of extraction solution. The quantity of dose measured in skin layers and time point samples were used to measure the mass balance of the experiment.

BRDT(2) = BRDT(2) (Homo sapiens (Human), UniProt Q58F21); assay: Bromodomain binding assay, BRDT(2); details: single point, screened at 30 times Kd; lower numbers indicate stronger hits
Protocol: as §1, §2

BRD2(1) = BRD2(1) (Homo sapiens (Human), UniProt P25440); assay: Bromodomain binding assay, BRD2(1); details: single point, screened at 30 times Kd; lower numbers indicate stronger hits
Chain of BRD2(1) (P25440 74-180): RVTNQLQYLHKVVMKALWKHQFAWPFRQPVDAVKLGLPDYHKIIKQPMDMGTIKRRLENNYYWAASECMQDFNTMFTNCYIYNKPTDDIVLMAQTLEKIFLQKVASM
Protocol: as §1, §2

BRD2(2) = BRD2(2) (Homo sapiens (Human), UniProt P25440); assay: Bromodomain binding assay, BRD2(2); details: single point, screened at 30 times Kd; lower numbers indicate stronger hits
Chain of BRD2(2) (P25440 344-453): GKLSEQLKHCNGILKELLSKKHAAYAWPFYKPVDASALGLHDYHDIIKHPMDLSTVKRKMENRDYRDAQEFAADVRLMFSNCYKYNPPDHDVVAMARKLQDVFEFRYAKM
Protocol: as §1, §2

BRD3(2) = BRD3(2) (Homo sapiens (Human), UniProt Q15059); assay: Bromodomain binding assay, BRD3(2); details: single point, screened at 30 times Kd; lower numbers indicate stronger hits
Chain of BRD3(2) (Q15059 306-415): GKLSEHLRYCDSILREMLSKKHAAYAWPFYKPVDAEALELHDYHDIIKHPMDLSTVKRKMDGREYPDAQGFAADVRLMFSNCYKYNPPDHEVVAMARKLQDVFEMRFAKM
Protocol: as §1, §2

With `Cn1cc(-c2cccc(O)c2Oc2ccccc2)c2cc[nH]c2c1=O` [Example 1, 4-(3-hydroxy-2-phenoxyphenyl)-6-methyl-1,6-dihydro-7H-pyrrolo[2,3-c]pyridin-7-one] the “BRDT(1) % Ctrl” value (BRDT(1)) was 0 % Ctrl, the “BRD3(1) % Ctrl” value (BRD3(1)) was 0 % Ctrl and the “Epidermal concentration” value [1] was 27 µM. The “BRDT(2) % Ctrl” value (BRDT(2)) was 3.8 % Ctrl, the “BRD2(1) % Ctrl” value (BRD2(1)) was 0 % Ctrl and the “BRD2(2) % Ctrl” value (BRD2(2)) was 0.6 % Ctrl. For the same molecule, the “BRD3(2) % Ctrl” value (BRD3(2)) was 0.05 % Ctrl.
